Assay results: US20250282794A1 (CURADEV PHARMA LTD, priority 2022, published 2025)

Each compound was assayed against recombinant full length HPK-1 enzyme (Homo sapiens (Human), UniProt Q92918) (assay: HPK-1 biochemical enzyme assay (ADP-Glo kinase inhibition)). Conditions: recombinant full length HPK-1 6.8 nM, 10 μM ATP, 12.5 μM MBP, 30 mins at 25° C.
Chain of recombinant full length HPK-1 enzyme (Q92918 whole entry, species assumed): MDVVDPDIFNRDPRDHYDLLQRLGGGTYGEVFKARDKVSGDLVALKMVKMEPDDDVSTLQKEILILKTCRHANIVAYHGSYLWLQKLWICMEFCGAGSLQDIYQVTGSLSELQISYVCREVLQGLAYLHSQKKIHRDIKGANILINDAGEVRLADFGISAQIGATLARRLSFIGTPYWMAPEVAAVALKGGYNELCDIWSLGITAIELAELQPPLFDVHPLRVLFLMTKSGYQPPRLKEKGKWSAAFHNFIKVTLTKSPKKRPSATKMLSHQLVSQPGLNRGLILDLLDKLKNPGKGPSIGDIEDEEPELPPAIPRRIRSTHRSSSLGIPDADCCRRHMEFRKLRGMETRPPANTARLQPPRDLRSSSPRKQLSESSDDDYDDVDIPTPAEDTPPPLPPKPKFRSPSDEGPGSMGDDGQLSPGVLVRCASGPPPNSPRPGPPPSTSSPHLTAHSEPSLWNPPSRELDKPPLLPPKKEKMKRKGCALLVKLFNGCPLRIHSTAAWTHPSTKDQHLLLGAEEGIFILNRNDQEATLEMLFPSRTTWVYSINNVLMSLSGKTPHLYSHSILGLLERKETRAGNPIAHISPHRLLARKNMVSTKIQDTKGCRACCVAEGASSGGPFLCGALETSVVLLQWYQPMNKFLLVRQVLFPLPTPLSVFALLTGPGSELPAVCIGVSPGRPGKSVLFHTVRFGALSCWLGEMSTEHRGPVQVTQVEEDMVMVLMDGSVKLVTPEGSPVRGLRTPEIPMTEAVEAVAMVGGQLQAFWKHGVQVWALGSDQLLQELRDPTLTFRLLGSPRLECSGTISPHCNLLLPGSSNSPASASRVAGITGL
Procedure, shortened: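 ADP-Glo readout of ADP formed after a 30 min, 25° C. reaction of 6.8 nM full-length HPK-1 with swine myelin basic protein (12.5 μM) and ATP (10 μM) in Tris pH 7.4 buffer with MgCl2, DTT and BSA. Ten compound concentrations tested; percent inhibition set against vehicle (0%) and no-enzyme (100%) controls gave IC50.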
Work on `CCC(=O)N1CCN(c2ccc(NC(=O)c3c(Nc4cnc5c(c4C)NCCO5)cc[nH]c3=O)cc2)C[C@@H]1C` [Example 345, (S)-4-((8-methyl-2,3-dihydro-1H-pyrido[2,3-b][1,4]oxazin-7-yl)amino)-N-(4-(3-methyl-4-propionylpiperazin-1-yl)phenyl)-2-oxo-1,2-dihydropyridine-3-carboxamide] yielded an IC50 of at most 10 nM.
Work on `COCCN1CCN(c2ccc(NC(=O)c3c(Nc4cnc5c(c4C)NCCO5)cc[nH]c3=O)cc2)C[C@@H]1C` [Example 346, (S)-N-(4-(4-(2-methoxyethyl)-3-methylpiperazin-1-yl)phenyl)-4-((8-methyl-2,3-dihydro-1H-pyrido[2,3-b][1,4]oxazin-7-yl)amino)-2-oxo-1,2-dihydropyridine-3-carboxamide] yielded an IC50 of at most 10 nM.
In the case of `CCC(=O)N1CCN(c2ccc(NC(=O)c3c(Nc4cnc5c(c4C)NCCO5)cc[nH]c3=O)cc2)C[C@H]1C` [Example 347, (R)-4-((8-methyl-2,3-dihydro-1H-pyrido[2,3-b][1,4]oxazin-7-yl)amino)-N-(4-(3-methyl-4-propionylpiperazin-1-yl)phenyl)-2-oxo-1,2-dihydropyridine-3-carboxamide], the IC50 is reported as at most 10 nM.
In the case of `COCCN1CCN(c2ccc(NC(=O)c3c(Nc4cnc5c(c4C)NCCO5)cc[nH]c3=O)cc2)C[C@H]1C` [Example 348, (R)-N-(4-(4-(2-methoxyethyl)-3-methylpiperazin-1-yl)phenyl)-4-((8-methyl-2,3-dihydro-1H-pyrido[2,3-b][1,4]oxazin-7-yl)amino)-2-oxo-1,2-dihydropyridine-3-carboxamide], the IC50 is reported as at most 10 nM.
With `Cc1c(Nc2cc[nH]c(=O)c2C(=O)Nc2ccc(N3CCN(C(=O)C(C)C)[C@H](C)C3)cc2)cnc2c1NCCO2` [Example 349, (R)-N-(4-(4-isobutyryl-3-methylpiperazin-1-yl)phenyl)-4-((8-methyl-2,3-dihydro-1H-pyrido[2,3-b][1,4]oxazin-7-yl)amino)-2-oxo-1,2-dihydropyridine-3-carboxamide] the IC50 was at most 10 nM.
`CO[C@@H](C)C(=O)N1CCN(c2ccc(NC(=O)c3c(Nc4cnc5c(c4C)NCCO5)cc[nH]c3=O)cc2)CC1` [Example 350, (S)-N-(4-(4-(2-methoxypropanoyl)piperazin-1-yl)phenyl)-4-((8-methyl-2,3-dihydro-1H-pyrido[2,3-b][1,4]oxazin-7-yl)amino)-2-oxo-1,2-dihydropyridine-3-carboxamide] showed an IC50 of at most 10 nM.
Compound `COCC(C)N1CCN(c2ccc(NC(=O)c3c(Nc4cnc5c(c4C)NCCO5)cc[nH]c3=O)cc2)CC1` (stereo not shown) [Example 351, N-(4-(4-(1-methoxypropan-2-yl)piperazin-1-yl)phenyl)-4-((8-methyl-2,3-dihydro-1H-pyrido[2,3-b][1,4]oxazin-7-yl)amino)-2-oxo-1,2-dihydropyridine-3-carboxamide] has an IC50 of 10 to 100 nM.
`Cc1c(Nc2cc[nH]c(=O)c2C(=O)Nc2ccc(N3CCN(C#N)CC3)cc2)cnc2c1NCCO2` [Example 352, N-(4-(4-cyanopiperazin-1-yl)phenyl)-4-((8-methyl-2,3-dihydro-1H-pyrido[2,3-b][1,4]oxazin-7-yl)amino)-2-oxo-1,2-dihydropyridine-3-carboxamide] gave an IC50 of 10 to 100 nM.
`CO[C@H](C)C(=O)N1CCN(c2ccc(NC(=O)c3c(Nc4cnc5c(c4C)NCCO5)cc[nH]c3=O)cc2)CC1` [Example 353, (R)-N-(4-(4-(2-methoxypropanoyl)piperazin-1-yl)phenyl)-4-((8-methyl-2,3-dihydro-1H-pyrido[2,3-b][1,4]oxazin-7-yl)amino)-2-oxo-1,2-dihydropyridine-3-carboxamide] was tested, and the IC50 was 10 to 100 nM.
Work on `CNC(C)C(=O)N1CCN(c2ccc(NC(=O)c3c(Nc4cnc5c(c4C)NCCO5)cc[nH]c3=O)cc2)CC1` (stereo not shown) [Example 354, 4-((8-methyl-2,3-dihydro-1H-pyrido[2,3-b][1,4]oxazin-7-yl)amino)-N-(4-(4-(methylalanyl)piperazin-1-yl)phenyl)-2-oxo-1,2-dihydropyridine-3-carboxamide] yielded an IC50 of 10 to 100 nM.
`Cc1c(Nc2cc[nH]c(=O)c2C(=O)Nc2ccc(N3CCN(C(=O)C4(C)CC4)CC3)cc2)cnc2c1NCCO2` [Example 355, 4-((8-methyl-2,3-dihydro-1H-pyrido[2,3-b][1,4]oxazin-7-yl)amino)-N-(4-(4-(1-methylcyclopropane-1-carbonyl)piperazin-1-yl)phenyl)-2-oxo-1,2-dihydropyridine-3-carboxamide] gave an IC50 of at most 10 nM.
`Cc1c(Nc2cc[nH]c(=O)c2C(=O)Nc2ccc(N3CCN(C(=O)C4CCN(C)C4)CC3)cc2)cnc2c1NCCO2` (stereo not shown) [Example 356, 4-((8-methyl-2,3-dihydro-1H-pyrido[2,3-b][1,4]oxazin-7-yl)amino)-N-(4-(4-(1-methylpyrrolidine-3-carbonyl)piperazin-1-yl)phenyl)-2-oxo-1,2-dihydropyridine-3-carboxamide] showed an IC50 of 10 to 100 nM.
Compound `Cc1c(Nc2cc[nH]c(=O)c2C(=O)Nc2ccc(N3CCN(C(=O)C(C)(C)O)CC3)cc2)cnc2c1NCCO2` [Example 357, N-(4-(4-(2-hydroxy-2-methylpropanoyl)piperazin-1-yl)phenyl)-4-((8-methyl-2,3-dihydro-1H-pyrido[2,3-b][1,4]oxazin-7-yl)amino)-2-oxo-1,2-dihydropyridine-3-carboxamide] has an IC50 of at most 10 nM.
`Cc1c(Nc2cc[nH]c(=O)c2C(=O)Nc2ccc(N3CCN(C(=O)C(C)N(C)C)CC3)cc2)cnc2c1NCCO2` (stereo not shown) [Example 358, N-(4-(4-(dimethylalanyl)piperazin-1-yl)phenyl)-4-((8-methyl-2,3-dihydro-1H-pyrido[2,3-b][1,4]oxazin-7-yl)amino)-2-oxo-1,2-dihydropyridine-3-carboxamide] was tested, and the IC50 was 10 to 100 nM.
Work on `Cc1c(Nc2cc[nH]c(=O)c2C(=O)Nc2ccc(N3CCN4C(=O)CC[C@H]4C3)cc2)cnc2c1NCCO2` [Example 359, (S)-4-((8-methyl-2,3-dihydro-1H-pyrido[2,3-b][1,4]oxazin-7-yl)amino)-2-oxo-N-(4-(6-oxohexahydropyrrolo[1,2-a]pyrazin-2(1H)-yl)phenyl)-1,2-dihydropyridine-3-carboxamide] yielded an IC50 of 10 to 100 nM.
In the case of `Cc1c(Nc2cc[nH]c(=O)c2C(=O)Nc2ccc(N3CCN(C)CC3)c(F)c2)cnc2c1NCC(C)O2` (stereo not shown) [Example 360, 4-((3,8-dimethyl-2,3-dihydro-1H-pyrido[2,3-b][1,4]oxazin-7-yl)amino)-N-(3-fluoro-4-(4-methylpiperazin-1-yl)phenyl)-2-oxo-1,2-dihydropyridine-3-carboxamide], the IC50 is reported as 10 to 100 nM.
`CCN1CCN(c2ccc(NC(=O)c3c(Nc4cnc5c(c4C)NCC(C)O5)cc[nH]c3=O)cc2F)CC1` (stereo not shown) [Example 361, 4-((3,8-dimethyl-2,3-dihydro-1H-pyrido[2,3-b][1,4]oxazin-7-yl)amino)-N-(4-(4-ethylpiperazin-1-yl)-3-fluorophenyl)-2-oxo-1,2-dihydropyridine-3-carboxamide] showed an IC50 of 10 to 100 nM.
`CCC(=O)N1CCN(c2ccc(NC(=O)c3c(Nc4cnc5c(c4C)NCC(C)O5)cc[nH]c3=O)cc2)CC1` (stereo not shown) [Example 362, 4-((3,8-dimethyl-2,3-dihydro-1H-pyrido[2,3-b][1,4]oxazin-7-yl)amino)-2-oxo-N-(4-(4-propionylpiperazin-1-yl)phenyl)-1,2-dihydropyridine-3-carboxamide] was tested, and the IC50 was 10 to 100 nM.
`Cc1ccc(N2CCN(c3ccc(NC(=O)c4c(Nc5cnc6c(c5C)NCCO6)cc[nH]c4=O)cc3)CC2)cn1` [Example 363, 4-((8-Methyl-2,3-dihydro-1H-pyrido[2,3-b][1,4]oxazin-7-yl)amino)-N-(4-(4-(6-methylpyridin-3-yl)piperazin-1-yl)phenyl)-2-oxo-1,2-dihydropyridine-3-carboxamide] gave an IC50 of 10 to 100 nM.
`COCc1cc(N2CCN(c3ccc(NC(=O)c4c(Nc5cnc6c(c5C)NCCO6)cc[nH]c4=O)cc3)CC2)ccn1` [Example 364, N-(4-(4-(2-(methoxymethyl)pyridin-4-yl)piperazin-1-yl)phenyl)-4-((8-methyl-2,3-dihydro-1H-pyrido[2,3-b][1,4]oxazin-7-yl)amino)-2-oxo-1,2-dihydropyridine-3-carboxamide] showed an IC50 of 10 to 100 nM.
`Cc1c(Nc2cc[nH]c(=O)c2C(=O)Nc2ccc(N3CCN(c4ccnc(C(=O)N(C)C)c4)CC3)cc2)cnc2c1NCCO2` [Example 365, N,N-dimethyl-4-(4-(4-(4-((8-methyl-2,3-dihydro-1H-pyrido[2,3-b][1,4]oxazin-7-yl)amino)-2-oxo-1,2-dihydropyridine-3-carboxamido)phenyl)piperazin-1-yl)picolinamide] was tested, and the IC50 was 10 to 100 nM.
In the case of `Cc1c(Nc2cc[nH]c(=O)c2C(=O)Nc2ccc(N3CCN(c4nccn4C)CC3)cc2)cnc2c1NCCO2` [Example 366, N-(4-(4-(1-methyl-1H-imidazol-2-yl)piperazin-1-yl)phenyl)-4-((8-methyl-2,3-dihydro-1H-pyrido[2,3-b][1,4]oxazin-7-yl)amino)-2-oxo-1,2-dihydropyridine-3-carboxamide], the IC50 is reported as at most 10 nM.
Work on `Cc1c(Nc2cc[nH]c(=O)c2C(=O)Nc2ccc(N3CCN(c4cscn4)CC3)cc2)cnc2c1NCCO2` [Example 367, 4-((8-methyl-2,3-dihydro-1H-pyrido[2,3-b][1,4]oxazin-7-yl)amino)-2-oxo-N-(4-(4-(thiazol-4-yl)piperazin-1-yl)phenyl)-1,2-dihydropyridine-3-carboxamide] yielded an IC50 of 10 to 100 nM.
In the case of `CCOCCN1CCN(c2ccc(NC(=O)c3c(Nc4cnc5c(c4C)NCCO5)cc[nH]c3=O)cc2)CC1` [Example 368, N-(4-(4-(2-ethoxyethyl)piperazin-1-yl)phenyl)-4-((8-methyl-2,3-dihydro-1H-pyrido[2,3-b][1,4]oxazin-7-yl)amino)-2-oxo-1,2-dihydropyridine-3-carboxamide], the IC50 is reported as 10 to 100 nM.
`COC(C)CN1CCN(c2ccc(NC(=O)c3c(Nc4cnc5c(c4C)NCCO5)cc[nH]c3=O)cc2)CC1` (stereo not shown) [Example 369, N-(4-(4-(2-methoxypropyl)piperazin-1-yl)phenyl)-4-((8-methyl-2,3-dihydro-1H-pyrido[2,3-b][1,4]oxazin-7-yl)amino)-2-oxo-1,2-dihydropyridine-3-carboxamide] was tested, and the IC50 was 10 to 100 nM.
